Laboratory results published in patent publication US5556859A, “N-(4-pyrimidinyl)amide pesticides” (DowElanco, priority 1994, dated 1996).

Columns and labels:
[1] = tested on: cotton aphid (Aphis gossypii); test: whole plant or invertebrate; conditions: 72 h, read-out: percent mortality, CA
[2] = tested on: Southern corn rootworm (Diabrotica undecimpuctata howardi Barber); test: whole plant or invertebrate; conditions: in Zea mays, soil, read-out: percent mortality, SCRW
[3] = tested on: two spotted spider mite (Tetranychus urticae); test: whole plant or invertebrate; conditions: 72 h, read-out: percent mortality, TSSM
[4] = tested on: German cockroach (Blattella germanicus); test: whole plant or invertebrate; conditions: 240 h, read-out: percent mortality, GECR
[5] = tested on: beet armyworm (Spodoptera exiqua); test: whole plant or invertebrate; conditions: 144 h, read-out: percent mortality, BAW
[6] = tested on: aster leafhopper (Macrosteles fascifrons); test: whole plant or invertebrate; conditions: 24 h, read-out: percent mortality, ALH
[7] = tested on: tobacco budworm (Heliothis virescens); test: Activity against tobacco budworm (TBW); type: in vivo; conditions: 144 h, read-out: percent mortality, TBW
Description: In conducting evaluations of insecticidal activity, each test compound was formulated as a 400 ppm solution, and this solution was then diluted with water to give lesser concentrations. The 400 ppm solution was prepared by combining 19.2 mL of 0.05% solution of Tween 20 (polyoxyethylene (20) sorbitan monolaurate) in water with a solution of 8 mg of the compound in 0.8 mL of acetone/EtOH (9/1).
Activity against tobacco budworm (Heliothis virescens) was evaluated as follows. A general purpose lepidoptera artificial diet was diluted to half strength with a 5% non nutritive agar. 8 mL of this diet material was dispensed into each one ounce diet cup. One hour prior to treatment 18 to 20 eggs were dispensed onto the diet surface. The cups were then sprayed with formulated material through a flat-fan nozzle. The test was run using concentrations of 400 ppm and 50 ppm. Treated cups were air dried prior to sealing with plastic caps. The cups were held for 6 days at room temperature. Activity was then rated based on the total number of live and dead larvae, and on the size of live larvae.

[8] = tested on: peanut root knot nematode (Meloidogyne arenaria); test: whole plant or invertebrate; conditions: in Arachis hypogaea, read-out: percent mortality, RKN

## Cc1nccc(NC(=O)Cc2ccc(Oc3cccc(C(F)(F)F)c3)cc2)n1 [Compound 69, 4-(3-trifluoromethylphenoxy)phenyl-N-(2-methyl-4-pyrimidinyl)acetamide]
[1]
  mortality at 400 ppm: 0%
[2]
  mortality at 24 µg/g: 0%
[3]
  mortality at 400 ppm: 0%
[4]
  mortality at 400 ppm: 0%
[5]
  mortality at 400 ppm: 80%
[6]
  mortality at 400 ppm: 40%
[7]
  mortality at 400 ppm: 80%

## C=C(C)c1nccc(NC(=O)Cc2ccc(Oc3ccc(F)cc3)cc2)n1 [Compound 27, 4-(4-fluorophenoxy)phenyl-N-(2-(1-methylethenyl)-4-pyrimidinyl)acetamide]
[1]
  mortality at 400 ppm: 100%
[8]
  mortality at 400 ppm: 0%
[2]
  mortality at 24 µg/g: 0%
[3]
  mortality at 400 ppm: 0%
[4]
  mortality at 400 ppm: 0%
[5]
  mortality at 400 ppm: 0%
[7]
  mortality at 400 ppm: 0%

## CCCc1nccc(NC(=O)Cc2ccc(OCC(F)(F)F)cc2)n1 [Compound 18, 4-(2,2,2-trifluroethoxy)phenyl-N-(2-propyl-4-pyrimidinyl)acetamide]
[1]
  mortality at 400 ppm: 100%
[8]
  mortality at 400 ppm: 100%
[2]
  mortality at 24 µg/g: 0%
[3]
  mortality at 400 ppm: 80%
[4]
  mortality at 400 ppm: 20%
[5]
  mortality at 400 ppm: 100%
[7]
  mortality at 400 ppm: 80%

## CCc1nccc(NC(=O)Cc2ccc(Oc3ncc(C(F)(F)F)cc3F)cc2)n1 [Compound 32, 4-(3-fluoro-5-trifluromethyl-2-pyridinyloxy)phenyl-N-(2-ethyl-4-pyrimidinyl)acetamide]
[1]
  mortality at 400 ppm: 100%
[8]
  mortality at 400 ppm: 100%
[2]
  mortality at 24 µg/g: 0%
[3]
  mortality at 400 ppm: 100%
[4]
  mortality at 400 ppm: 60%
[5]
  mortality at 400 ppm: 100%
[7]
  mortality at 400 ppm: 100%

## CCCCc1nccc(NC(=O)Cc2ccc(Oc3ccc(C(F)(F)F)cc3)cc2)n1 [Compound 65, 4-(4-trifluoromethylphenoxy)phenyl-N-(2-butyl-4-pyrimidinyl)acetamide]
[1]
  mortality at 400 ppm: 100%
[2]
  mortality at 24 µg/g: 0%
[3]
  mortality at 400 ppm: 100%
[4]
  mortality at 400 ppm: 100%
[5]
  mortality at 400 ppm: 100%
[6]
  mortality at 400 ppm: 0%
[7]
  mortality at 400 ppm: 100%

## COCc1nccc(NC(=O)Cc2ccc(Oc3ccc(F)cc3)cc2)n1 [Compound 39, 4-(4-fluorophenoxy)phenyl-N-(2-(methoxymethyl)-4-pyrimidinyl)acetamide]
[1]
  mortality at 400 ppm: 100%
[8]
  mortality at 400 ppm: 100%
[2]
  mortality at 24 µg/g: 0%
[3]
  mortality at 400 ppm: 100%
[4]
  mortality at 400 ppm: 100%
[5]
  mortality at 400 ppm: 100%
[7]
  mortality at 400 ppm: 100%

## CC(C)(C)c1nccc(NC(=O)Cc2ccc(OCC(F)(F)F)cc2)n1 [Compound 24, 4-(2,2,2-trifluroethoxy)phenyl-N-(2-(1,1-dimethylethyl)-4-pyrimidinyl)acetamide]
[1]
  mortality at 400 ppm: 90%
[8]
  mortality at 400 ppm: 0%
[2]
  mortality at 24 µg/g: 100%
[3]
  mortality at 400 ppm: 60%
[4]
  mortality at 400 ppm: 0%
[5]
  mortality at 400 ppm: 100%
[7]
  mortality at 400 ppm: 100%

## CCCCc1nccc(NC(=O)Cc2ccc(OCC(F)(F)F)cc2)n1 [Compound 20, 4-(2,2,2-trifluroethoxy)phenyl-N-(2-butyl-4-pyrimidinyl)acetamide]
[1]
  mortality at 400 ppm: 0%
[8]
  mortality at 400 ppm: 80%
[2]
  mortality at 24 µg/g: 100%
[3]
  mortality at 400 ppm: 0%
[4]
  mortality at 400 ppm: 0%
[5]
  mortality at 400 ppm: 100%
[7]
  mortality at 400 ppm: 0%

## CCCCCCCCCCCCCCCCCC(=O)Nc1ccnc(CC)n1 [Compound 34]
[1]
  mortality at 400 ppm: 0%
[8]
  mortality at 400 ppm: 0%
[2]
  mortality at 24 µg/g: 0%
[3]
  mortality at 400 ppm: 0%
[4]
  mortality at 400 ppm: 20%
[5]
  mortality at 400 ppm: 0%
[7]
  mortality at 400 ppm: 0%

## CCCCCCCCC(C)C(=O)Nc1ccnc(CC)n1 (stereo not shown) [Compound 33, N-(2-ethyl-4-pyrimidinyl)-2 methyldecamide]
[1]
  mortality at 400 ppm: 80%
[8]
  mortality at 400 ppm: 0%
[2]
  mortality at 24 µg/g: 0%
[3]
  mortality at 400 ppm: 40%
[4]
  mortality at 400 ppm: 20%
[5]
  mortality at 400 ppm: 0%
[7]
  mortality at 400 ppm: 0%
